Consider ten molecules from ChEMBL document CHEMBL1201862, “PubChem BioAssay data set” (2004).

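Exposure lasted 48 hours, with cells grown in 96-well plates and compounds tested at five concentrations. Abbreviation: GI50, concentration required for 50% inhibition of growth.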 The source made the active and inactive calls. No stated cut-off is given here; in the data, active = GI50 up to about 1.1 µM and inactive = higher. *1 amine or outer side, *2 acyl side, *3 side chain or, on linkers, in order; H or OH if unused. Where a SMILES comes first, the peptide text is derived from it. [ ]: non-standard residue; d: D form. The star is where a group is joined. X31 = CC(=O)N(C)SCC(N[*:1])C(=O)[*:2]; Fmoc = O=C(OCC1c2ccccc2-c2ccccc21)*; For = O=C*

Experiment in all cases: NCI anticancer screen, dose series, 48 h
The subject of experiment [1] is ACHN.
In experiment [2] the test system is HCC 2998.
Experiment [3] concerns HCT-116.
Experiment [4] has as its system HCT-15.
Experiment [5] has as its system K562.
In experiment [6] the test system is KM12.
Experiment [7] has as its system LOX IMVI.
Experiment [8] relates to Malme-3M.
The subject of experiment [9] is NCI/ADR-RES.
Experiment [10] deals with OVCAR-4.
Experiment [11] has as its system OVCAR-5.
The subject of experiment [12] is OVCAR-8.
In experiment [13] the test system is SF-268.
In experiment [14] the test system is SF-295.
The subject of experiment [15] is SK-MEL-28.
Experiment [16] relates to SK-MEL-2.
The subject of experiment [17] is SK-MEL-5.
Experiment [18] relates to SNB-19.
The test system of experiment [19] is UO-31.
Experiment [20] relates to A498.

`CC(=O)N(C)SCC(NC(=O)C(Cc1ccccc1)NC(=O)OCC1c2ccccc2-c2ccccc21)C(=O)NC(Cc1ccccc1)C(=O)NC(Cc1cn(C=O)c2ccccc12)C(=O)NC(CCCCNC(=O)OCC1c2ccccc2-c2ccccc21)C(=O)NC(C(=O)NC(CSN(C)C(C)=O)C(=O)NC(C(N)=O)C(C)O)C(C)O` (centres undefined) (Fmoc-F[X31]FW(For)K(Fmoc)T[X31]T-NH2; configuration not given here): the GI50 in experiment [1] was 37 µM (inactive); in experiment [2], > 100 µM (inactive); in [3], 77.8 µM (inactive); in [4] it was 95.1 µM; in experiment [5], > 100 µM (inactive); in experiment [6], 19.8 µM (inactive). For the same molecule, the GI50 in experiment [7], in experiment [8], in experiment [9], in experiment [10], in [11] and in [12] was > 100 µM (inactive) throughout. In addition, the GI50 was > 100 µM (inactive) in experiment [13]; 89.5 µM (inactive) in experiment [14]; > 100 µM (inactive) in experiment [15]; 40.6 µM (inactive) in experiment [16]; 55.1 µM (inactive) in experiment [17]; 75.5 µM (inactive) in experiment [18]. Also, in [19], the GI50 is 16.2 µM (inactive).

Turning to `COc1ccc(C2CC(c3ccccc3)=Nc3c(-c4ccccc4)nnn32)cc1` (centres undefined), the GI50 is > 100 µM (inactive) in experiment [20]; 17 µM (inactive) in experiment [1]; 35.5 µM (inactive) in experiment [3]; 9.06 µM in [4]; > 100 µM (inactive) in experiment [5]; 46.9 µM (inactive) in experiment [6]. The GI50 in [7] is > 100 µM (inactive); in experiment [9], > 100 µM (inactive); in [11], > 100 µM (inactive); in experiment [12], 37.3 µM (inactive); in experiment [13], > 100 µM (inactive); in [14], > 100 µM (inactive). Besides, the GI50 was 44.4 µM (inactive) in experiment [16], 9.27 µM (inactive) in experiment [17], > 100 µM (inactive) in experiment [18] and > 100 µM (inactive) in experiment [19].

Turning to `Cc1nn(-c2ccccc2)c2c1N=C(C(=O)O)CC(c1ccccc1)=N2`, the GI50 in [1] was > 10 µM (inactive); in experiment [2], > 10 µM (inactive); in experiment [3] it was > 10 µM (inactive); in experiment [4], > 10 µM; in experiment [5], > 10 µM (inactive); in [6], > 10 µM (inactive). Besides, the GI50 in [7], in experiment [8], in experiment [9], in [10], in experiment [12] and in [13] was > 10 µM (inactive) throughout. Also, the GI50 in experiment [14], in experiment [15], in experiment [17] and in experiment [18] was > 10 µM (inactive) in each case.

`NS(=O)(=O)c1ccc(NC2=CC(=O)C(=O)c3ccccc32)cc1`: the GI50 in [20] was > 100 µM (inactive); in experiment [1] it was > 100 µM (inactive); in experiment [2] it was > 100 µM (inactive); in experiment [3], 76.4 µM (inactive); in experiment [4] it was > 100 µM; in experiment [5], > 100 µM (inactive). The GI50 in experiment [6], in experiment [7], in experiment [8], in [10], in experiment [11] and in experiment [12] was > 100 µM (inactive) throughout. Further, the GI50 in experiment [13], in [14], in experiment [15], in [16], in experiment [17] and in [18] was > 100 µM (inactive) throughout. Also, the GI50 in [19] was > 100 µM (inactive).

As to `CCOC(=O)CC(C)C1(C(=O)OCC)CCCCC1=O` (centres undefined), the GI50 is > 100 µM (inactive) in [20]; > 100 µM (inactive) in experiment [1]; > 100 µM (inactive) in experiment [2]; 46 µM (inactive) in experiment [3]; 22.9 µM in experiment [4]; > 100 µM (inactive) in experiment [5]. Also, the GI50 was > 100 µM (inactive) in [6]; 67.3 µM (inactive) in [7]; > 100 µM (inactive) in [8]; > 100 µM (inactive) in [10]; > 100 µM (inactive) in [11]; > 100 µM (inactive) in experiment [12]. The GI50 in experiment [13], in [14], in experiment [15], in [16], in experiment [17] and in [18] was > 100 µM (inactive) in each case. Besides, the GI50 in experiment [19] is > 100 µM (inactive).

Turning to `O=C1OC(c2ccccc2)=N/C1=C/NC(Cc1ccccc1)C(=O)O` (centres undefined), the GI50 in [20] is > 100 µM (inactive); in experiment [1], > 100 µM (inactive); in [2], > 100 µM (inactive); in experiment [3], > 100 µM (inactive); in experiment [4] it was > 100 µM; in [5], > 100 µM (inactive). In addition, the GI50 in experiment [6], in experiment [7], in experiment [8], in [10], in experiment [11] and in experiment [12] was > 100 µM (inactive) each time. Besides, the GI50 in experiment [13], in experiment [14], in experiment [15], in [16], in [17] and in experiment [18] was > 100 µM (inactive) throughout. Further, the GI50 in [19] was > 100 µM (inactive).

In the case of `CC1=NN(C(=O)Cc2ccccc2)C(=O)/C1=C\c1ccc([N+](=O)[O-])cc1`, the GI50 was > 100 µM (inactive) in experiment [20]; > 100 µM (inactive) in [1]; > 100 µM (inactive) in experiment [2]; > 100 µM (inactive) in experiment [3]; > 100 µM in experiment [4]; > 100 µM (inactive) in experiment [5]. Besides, the GI50 in experiment [6], in experiment [7], in [8], in experiment [10], in experiment [11] and in experiment [12] was > 100 µM (inactive) in each case. For the same molecule, the GI50 in experiment [13], in experiment [14], in [15], in experiment [16], in [17] and in experiment [18] was > 100 µM (inactive) each time. Moreover, the GI50 in [19] was > 100 µM (inactive).

Turning to `NC1=C(O)c2cccc3cccc(c23)C1=O`, the GI50 was > 100 µM (inactive) in experiment [20]; > 100 µM (inactive) in experiment [1]; > 100 µM (inactive) in [2]; > 100 µM (inactive) in experiment [3]; > 100 µM in experiment [4]; > 100 µM (inactive) in experiment [5]. Moreover, the GI50 in [6], in experiment [7], in experiment [8], in experiment [10], in [11] and in experiment [12] was > 100 µM (inactive) each time. In addition, the GI50 in experiment [13], in [14], in [15], in [16], in experiment [17] and in experiment [18] was > 100 µM (inactive) each time. Further, the GI50 in experiment [19] is 51.6 µM (inactive).

`COc1cc(C(=O)Nc2nnc(S(N)(=O)=O)s2)cc(OC)c1OC`: the GI50 is > 100 µM (inactive) in experiment [1]; > 100 µM (inactive) in [2]; > 100 µM (inactive) in [3]; > 100 µM in experiment [4]; > 100 µM (inactive) in experiment [5]; > 100 µM (inactive) in experiment [6]. For the same molecule, the GI50 in experiment [7], in experiment [8], in experiment [9], in experiment [10], in [11] and in experiment [12] was > 100 µM (inactive) each time. Moreover, the GI50 in experiment [13], in [14], in [15], in experiment [16], in [17] and in experiment [18] was > 100 µM (inactive) throughout. In addition, in experiment [19], the GI50 was > 100 µM (inactive).

Consider `N=C(N)NS(=O)(=O)c1ccc(NNc2c3ccccc3nc3ccccc23)cc1`, for which the GI50 is 3.63 µM (inactive) in [1]; 12.4 µM (inactive) in experiment [2]; 8.34 µM (inactive) in [3]; 18.6 µM in experiment [4]; 6.04 µM (inactive) in [5]; 11.2 µM (inactive) in experiment [6]. In addition, the GI50 was 3.59 µM (inactive) in experiment [7]; 17.3 µM (inactive) in experiment [8]; 26.4 µM (inactive) in experiment [9]; 4.85 µM (inactive) in experiment [10]; 17.6 µM (inactive) in experiment [11]; 6.38 µM (inactive) in [12]. Further, the GI50 in experiment [13] was 10.4 µM (inactive); in [14], 13.8 µM (inactive); in [15], 13.8 µM (inactive); in experiment [16] it was 18.2 µM (inactive); in experiment [17], 9.31 µM (inactive); in experiment [18] it was 8.34 µM (inactive). For the same molecule, the GI50 in [19] is 13.6 µM (inactive).
